These results are taken from paper PMC12621189, “Optimization of Selective and CNS Penetrant Alkyne-Based TREK Inhibitors: The Discovery and Characterization of ONO-9517601 (VU6022856) and ONO-7927846 (VU6024391)” (Journal of Medicinal Chemistry, 2025).

As a reminder, the aqueous solubility is how much of the substance goes into solution per volume. Usually pIC50 stands for the IC50 on a negative log10 scale, so that one unit is a factor of ten. As a reminder, the Kp is tissue or fluid exposure divided by exposure in the circulation.

pIC50: −log10 of the molar value.

On the set-up of series [1]: method as in earlier work. The note with it: ref 24 (Tanaka et al., ACS Med. Chem. Lett. 2025); cited from earlier work.
Series [2] relates to MK-801 challenged mouse. Also noted: method as in earlier work. As to conditions: IP, ref 24 (Tanaka et al., ACS Med. Chem. Lett. 2025); cited from earlier work.
Details of series [3]: method as in earlier work. The note with it: ref 24 (Tanaka et al., ACS Med. Chem. Lett. 2025); cited from earlier work. This is another data set of the same source.
On the set-up of series [4]: method as in earlier work. The note with it: ref 24 (Tanaka et al., ACS Med. Chem. Lett. 2025); cited from earlier work. The source holds these as a separate data set.
On the set-up of series [5]: method as in earlier work. The note with it: ref 24 (Tanaka et al., ACS Med. Chem. Lett. 2025); cited from earlier work. The source holds these as a separate data set.
A short description of series [6]: Liver microsome intrinsic clearance, rat. As to conditions: pH 7.4; rat liver microsomes, predicted intrinsic clearance; read-out: LMS CLINT rat. The series is classed as in vitro ADME. On the procedure: (§1) were incubated in 100 mM potassium phosphate pH 7.4 buffer with 3 mM MgCl2 at 37 °C with constant shaking. After a 5 min preincubation, the reaction was initiated by the addition of NADPH (1 mM). At selected time intervals (0, 3, 7, 15, 25, and 45 min), aliquots were taken and subsequently placed into a 96-well plate containing cold acetonitrile with internal standard (50 ng/mL carbamazepine). Plates were then centrifuged at 3000 rcf (4 °C) for 10 min, and the supernatant was transferred to a separate 96-well plate and diluted 1:1 with water for LC/MS/MS analysis. The in vitro half-life ( 1/2, min, Eq. 1), intrinsic clearance (CLint, mL/min/kg, Eq. 2), and subsequent predicted hepatic clearance (CLhep, mL/min/kg, Eq. 3) was determined employing the […]
(§2) where k represents the slope from linear regression analysis of the natural log percent remaining of a test compound as a function of incubation time […]
(§3) (2) CLint = in vitroT x mg microsomes x gram liver x kg body wt ascale-up factors: of 20 (human) or 45 (rat) […]
(§4) where Qh (hepatic blood flow, mL/min/kg) is 21 (human) or 70 (rat).
(§5) LC/MS/MS Bioanalysis of Samples from Plasma Protein Binding and Intrinsic Clearance […]
(§6) Samples were analyzed on a Thermo Electron TSQ Quantum Ultra triple quad mass spectrometer (San Jose, CA) via electrospray ionization (ESI) with two Themo Electron Accella pumps (San Jose, CA), and a Leap Technologies CTC PAL autosampler (Carrboro, NC). Analytes were […]

Series [7] is described as follows: Liver microsome intrinsic clearance, mouse. The series is classed as in vitro ADME. The note with it: mouse liver microsomes, predicted intrinsic clearance; read-out: LMS CLINT mouse.
A short description of series [8]: Plasma protein binding, human (equilibrium dialysis). Format: in vitro ADME. The note with it: pH 7.4, read-out: PPB human (converted). The procedure: (§7) Plasma protein binding and Brain homogenate binding: Determination of fraction unbound (f u) in plasma was conducted in vitro via equilibrium dialysis using HTDialysis (HTD) membrane plates. The top half of the plate was filled with 100 uL of Dubelco’s Phosphate Buffered Saline, pH 7.4 (DPBS). Compounds were diluted into plasma from each species (5 µM final concentration), which was aliquoted in triplicate to the ‘bottom half’ of the prepared HTD plate wells. The HTD plate was sealed and incubated for 6 hours at 37 °C. Following incubation, each well (both top and bottom halves) were transferred (20 µL) to the corresponding wells of a 96-shallow-well (V-bottom) plate. The daughter plates were then matrix-matched (DPBS side wells received equal volume of plasma, and plasma side wells received equal volume of DPBS), and extraction solution (120 µL; acetonitrile containing 50 nM carbamazepine as IS) was added to all wells of both daughter plates to precipitate protein and extract test article. The plates were then sealed and centrifuged (3500 rcf) for 10 minutes at ambient temperature. Supernatant (60 µL) from each well of the daughter plates was then transferred to the corresponding wells of new daughter plates (96-shallow-well, V bottom) containing water (Milli-Q, 60 µL/well), and the plates were sealed in preparation for LC-MS/MS analysis (see LC-MS/MS analysis method below).
(§8) The unbound fraction (f u) was calculated following the equation below, and mean values for each species were calculated from 3 replicates. […]
(§9) Fraction unbound for both plasma and brain samples was determined using Equation 4.
(§10) Equation 4 Determination of fraction unbound in plasma. […]

Series [9] is described as follows: Liver microsome intrinsic clearance, human. Format: in vitro ADME. As to conditions: pH 7.4; human liver microsomes, predicted intrinsic clearance; read-out: LMS CLINT human. On the procedure: as §1, §2, §3, §4, §5, §6
Series [10] is described as follows: Plasma protein binding, mouse. Format: in vitro ADME. As to conditions: mouse, plasma, pH 7.4, mouse plasma, bound; read-out: PPB mouse (converted). The procedure: as §7, §8, §9, §10
Series [11] addresses T1, human TREK-1 (hTREK-1) (Homo sapiens, UniProt O95069).
T1 construct: expressed in transfected cells
T1 sequence (O95069 1-426): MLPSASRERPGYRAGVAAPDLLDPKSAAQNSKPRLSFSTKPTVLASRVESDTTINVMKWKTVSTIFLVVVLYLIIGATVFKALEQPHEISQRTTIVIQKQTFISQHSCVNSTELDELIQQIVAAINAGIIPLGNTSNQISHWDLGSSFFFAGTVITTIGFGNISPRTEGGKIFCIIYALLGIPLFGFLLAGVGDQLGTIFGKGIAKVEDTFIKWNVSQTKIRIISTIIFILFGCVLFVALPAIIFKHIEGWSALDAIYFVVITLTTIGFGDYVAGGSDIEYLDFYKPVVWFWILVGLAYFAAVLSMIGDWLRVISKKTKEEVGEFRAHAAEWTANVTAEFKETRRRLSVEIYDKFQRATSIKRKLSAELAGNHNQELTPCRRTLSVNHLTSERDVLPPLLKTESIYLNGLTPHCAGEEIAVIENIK
The experiment in a line: TREK-1 thallium flux assay (CHO-K1 cells stably expressing hTREK-1). Format: cell-based. The note with it: human TREK-1, thallium flux; read-out: h TREK-1 Tl+ IC50. The method, boiled down: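 Cells loaded with FluxOR dye were preincubated 10 min with test compound in 0.3% DMSO, then given thallium stimulus buffer. ΔRatio was fluorescence 25 s after thallium over pre-thallium baseline; % inhibition was normalised between vehicle and 10 μM reference blocker, and IC50 was fitted from concentration–response.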

A short description of series [12]: Rat brain to plasma ratio (Kp, Kp,uu). The series is classed as in vivo. As to conditions: male, Sprague Dawley, brain and plasma, intravenous, 0.2 mg/kg; rat brain:plasma. On the procedure: Determination of brain to plasma ratio:
All animal study procedures were approved by the Institutional Animal Care and Use Committee and were conducted in accordance with the National Institutes of Health regulations of animal care covered in Principles of Laboratory Animal Care (National Institutes of Health). All rats were fasted overnight prior to testing.
For determination of the brain over plasma ratio (Kp), compounds were formulated in 8% ethanol, 32% PEG400 and 60% DMSO (v/v/v) and administered as a single 0.2 mg/kg IV dose (1 mL/kg) to male, Sprague Dawley rats (n = 1) via injection into a surgically-implanted jugular vein catheter. At 15 min post dosing, blood sample was collected into chilled, K2EDTA anticoagulant-fortified tube and immediately placed on wet ice. The blood sample was then centrifuged (1700 rcf, 5 minutes, 4 °C) to obtain plasma sample. At the same post-administration time point, whole brain sample was obtained by rapid dissection, rinsed with PBS, and immediately frozen in individual tissue collection box (dry ice). All brain and plasma samples were stored at -80 °C until […]
Sample Analysis: Concentrations in plasma and brain homogenates were quantified by liquid chromatography tandem mass spectrometry (LC-MS/MS). Whole brains were homogenized in 3 mL of 70:30 IPA:water in a mini bead beater for 3 min, and centrifuged at 3,500 g for 5 min. 5 uL of the supernatant was diluted in 15 uL of blank plasma for quantification of the analytes. Plasma samples were centrifuged at 3,500 g for 5 min. A standard curve was generated by diluting the analytes DMSO stocks with blank plasma to obtain a final concentration of 10,000 ng/ml followed by a serial dilution down to 0.5 ng/ml. Quality controls were generated by a serial dilution of the 5,000 ng/ml standard curve solution in blank plasma to obtain 3 concentrations of 500, 50, and 5 ng/ml. 20 uL of brain diluted in plasma, plasma, blank plasma, standard curve and QC samples were loaded in a V-bottom 96-well plate. 120 uL of acetonitrile containing 0.05 uM carbamazepine (internal standard) was added to each well and the plate was centrifuged at 3,500 g for 5 min. 60 uL of the supernatant of each well (protein free) was transferred to a new 96-well plate containing 60 uL of water. The plates were sealed for analysis by LC-MS/MS.
Plasma and brain tissue samples originating from in vivo studies were analyzed by electrospray ionization using an AB Sciex Q-TRAP 5500 (Foster City, CA) that was coupled to a Shimadzu LC-20AD pump (Columbia, MD) and a Leap Technologies CTC PAL auto-sampler (Carrboro, NC). Analytes were separated by gradient elution using a C18 column (3 x 50 mm, 3 mm; Fortis Technologies Ltd, Cheshire, UK) that was thermostated at 40 °C. HPLC mobile phase A was 0.1% formic acid in water (pH unadjusted); mobile phase B was 0.1% formic acid in acetonitrile (pH […]
min, with an isocratic hold for 0.5 min, before transitioning to 10% B over 0.05 min. The column was re-equilibrated (1 min) before the next sample injection. The total run time was 2.55 min, and the HPLC flow rate was 0.5 ml/min. The source temperature was set at 500 °C, and mass spectral analyses were performed using a Turbo-Ion spray source in positive ionization mode (5.0-kV spray voltage) and using multiple-reaction monitoring of transitions specific for the analytes. All data were analyzed using AB Sciex Analyst 1.5.1 software.
Brain plasma concentration ratio (Kp) was calculated by dividing brain concentration by plasma concentration for each animal. Unbound brain to unbound plasma concentration ratio (Kp,uu) is calculated using the following formula: Kp,uu = (Brain ng/g x brain fu)/(plasma ng/ml x plasma fu).
In-vitro determination of blood-brain barrier penetration potential
Blood-brain barrier penetration was determined using MDR1-MDCK cell monolayers by Absorption Systems, following their protocol. In short, compounds were incubated at […] final concentration on one side of the cell monolayer for 2 hours. […]

The nature of series [13]: Plasma protein binding, rat. The note with it: rat, plasma, pH 7.4, rat plasma, bound; read-out: PPB rat (converted). The series is classed as in vitro ADME. On the procedure:
as §7, §8, §9, §10

The nature of series [14]: Rat in vivo PK (plasma clearance) in SAR tables. As to conditions: read-out: Rat CLp.

Regarding `Cc1cc(C#Cc2ccc(F)cc2)cnc1NC(=O)c1cc(NC(=O)OC(C)(C)C)ccc1Cl` [Compound 5], in series [1], the ChromatoLogD is listed as 5.16. In addition, the “MED, MK-801 mouse NOR” value in series [2] is on record as 10 mg/kg. For the same compound, the aqueous solubility in [3] was less than 5 µM. In addition, the “brain homogenate binding mouse” value in series [4] is given as 99.4%. The “brain homogenate binding rat” value in series [5] is listed as greater than 99.9%.
With `CC(=O)N1CC(F)(Cn2ncc(Cl)c2C(=O)Nc2ncc(C#Cc3ccccc3)cc2C)C1` [Compound 15e, 1-((1-Acetyl-3-fluoroazetidin-3-yl)methyl)-4-chloro-N-(3-methyl-5-(phenylethynyl)pyridin-2-yl)-1H-pyrazole-5-carboxamide], the results for the CLint scaled at 1 µM in series [6] and in [9] were 72 mL/min/kg and 16 mL/min/kg, respectively. For the same compound, in series [7], the CLint scaled was 340 mL/min/kg. The fraction unbound at 6 h, 5 µM in series [8] was 0.039; in series [10], 0.022.
On to `CC(=O)N[C@H]1CC[C@@H](n2ncc(Cl)c2C(=O)Nc2ncc(C#Cc3ccccc3)cc2C)CC1` [Compound 15f, 1-(cis-4-Acetamidocyclohexyl)-4-chloro-N-(3-methyl-5-(phenylethynyl)pyridin-2-yl)-1H-pyrazole-5-carboxamide], for which the pIC50 in series [11] is 6.89. For the same compound, the partition ratio (Kp) at 15 min in [12] was determined as 0.97. In addition, the fraction unbound at 6 h, 5 µM in series [13] is 0.016; in series [8], 0.012; in series [10] it was 0.008. The clearance in series [14] is 27.8 mL/min/kg.
